In US8299097B2, “Methods for treating inflammatory disorders” (The Brigham and Women's Hospital, Inc., priority 2008, dated 2012):

Tests used:
P2Y12 receptors = test: Competitive radioligand binding of [H^3]ADP to LAD2 cell membranes; parameters: species or system human
Method: (§1) FIG. 10. Competitive ligand binding assays. 10A. […] Specific binding (typically 50-75% of the total) was calculated by subtracting the amount of radiolabel that was insensitive to the selective P2Y12 receptor antagonist 2-MesAMP. Nonspecific binding was essentially identical in the membranes with and without P2Y12 receptor knockdown. The dose response for the LAD2 membranes are from a single experiment repeated four times with similar results. The binding on the LAD2 cells with P2Y12 knocked down was repeated twice. 10B. Specific binding of radiolabeled ADP (2000 nM) to membranes of LAD2 cells. […] Results are mean±SD from three separate experiments. 10C. Conversion of radiolabeled LTD4 to LTE4 as confirmed by HPLC (left). […] Results in a second experiment were similar 10D. Competitive binding of radiolabeled 2-MesADP to COS-7 cells transfected with the human P2Y12 construct.
Competitive radioligand binding assays were performed using [H^3]ADP (the known natural ligand of P2Y12 receptors) and unlabeled LTs as competitors. […] The membranes from the transfectants expressing the forward construct bound [P^33]2-MesADP, a selective P2Y12 receptor agonist.
[^3H] […] The converted product was extracted into 400 μl of methanol, evaporated in presence of nitrogen and diluted to the required concentration with the binding buffer for the binding assay. The conversion was confirmed by running an aliquot on high-performance reverse phase liquid chromatography. […] Briefly, cells were washed in PBS, resuspended in PBS supplemented with protease inhibitor cocktail and lysed by sonication for 5 min. The lysed cells were centrifuged at 100,000 Xg for 45 min and the microsomal pellet was resuspended in 1 ml PBS. Protein concentration was determined using Biorad Protein Assay Kit. 50 μg of membrane protein was incubated for 1 h at room temperature in 250 μl of 10 mM Hepes/KOH, pH 7.4, with various concentrations of radiolabeled ligand and cold competitor. Bound [^3H] was separated from free [^3H] by filtration through GF/C filters (Whatman) and washed twice with 10 mM Hepes/KOH, pH 7.4, containing 0.01% BSA. The residual membrane-associated [^3H] on the filter was determined in 2 ml scintillation fluid by beta counter (Perkin Elmer). For [^3H]ADP, specific binding was determined by subtracting the amount of [^3H] bound in the presence of 100 μM 2-MesADP from total binding.

[1] = Direct binding of [H^3]LTE4 to LAD2 cell membranes; parameters: species or system human
Method: as §1
Competitive radioligand binding assays were performed using [H^3]ADP (the known natural ligand of P2Y12 receptors) and unlabeled LTs as competitors. […]
[^3H] […] Protein concentration was determined using Biorad Protein Assay Kit. […] The residual membrane-associated [^3H] on the filter was determined in 2 ml scintillation fluid by beta counter (Perkin Elmer). For [^3H]ADP, specific binding was determined by subtracting the amount of [^3H] bound in the presence of 100 μM 2-MesADP from total binding.

Cysltr1/Cysltr2^−/− mice = test: LTE4 amplification of pulmonary inflammation in mice lacking both CysLT1R and CysLT2R; assay type: in vivo, mouse
Method: (§2) FIG. 4. […] 4A. […] Clopidogrel (500 μg/ml) was added to the drinking water of the indicated groups of mice for 72 h before the first intranasal dose of LTs, and was maintained throughout the treatment. Results are mean±SEM from at least 9 mice in each group. The experiments were repeated three times with similar results. 4B. PAS stains (left column) from representative mice in the indicated groups showing the effect of clopidigrel on goblet cell metaplasia. Higher magnification images of H & E stains (right) from the same animals showing cellular characteristics of the bronchovascular infiltrates. 4C. Effect of clopidogrel administration on the steady-state expression of IL-13 and MUC5AC mRNA as determined by real-time PCR of whole lung RNA extracted 24 h after the last OVA challenge of the indicated groups. Data are mean±SEM from 4-5 mice/group from a single experiment. Results in a second experiment were similar 4D-4F. […] 4D. Total cell numbers (top), percentages of eosinophils (middle), and total numbers of eosinophils in BAL fluid recovered 24 h after the last challenge with OVA. 4E. Goblet cell metaplasia (top) and representative PAS stains (bottom) from wild-type and p2ry12^−/− mice subjected to the same protocol. 4E. Inflammation scores from the same mice. Data in 4D-4F are from 4 mice per group. […] Quantitative assessment of bronchovascular inflammation as determined by H & E stains. […]

p2ry12^−/− mice = test: LTE4 amplification of pulmonary inflammation in p2ry12^−/− mice and C57BL/6 controls; assay type: in vivo, mouse
Method: as §2

## CCCCC/C=C\C\C=C/C=C/C=C/[C@@H](SC[C@H](N)C(=O)O)[C@@H](O)CCCC(=O)O [LTE4]
P2Y12 receptors; unlabeled LTE4 0.1 nM, mean±SEM, four experiments
  specific ADP binding blocked: 39±9%
P2Y12 receptors; unlabeled LTE4 1 nM, mean±SEM, four experiments
  specific ADP binding blocked: 50±9%
P2Y12 receptors; unlabeled LTE4 1 μM, mean±SEM, four experiments
  specific ADP binding blocked (plateau): 60±7%
P2Y12 receptors; unlabeled competitors 10 μM
  competition with labeled ADP, LTE4 compared with LTD4: more efficacious than LTD4
[1]
  binding of [H^3]LTE4 to LAD2 cell membranes: weakly bound
Cysltr1/Cysltr2^−/− mice
  potentiation of OVA-induced BAL fluid eosinophilia, goblet cell metaplasia and inflammation: completely intact
p2ry12^−/− mice; WT C57BL/6 controls
  potentiation of BAL fluid eosinophilia, goblet cell metaplasia and bronchovascular infiltration: potentiated
p2ry12^−/− mice; p2ry12^−/− mice
  potentiation of BAL fluid eosinophilia, goblet cell metaplasia and bronchovascular infiltration: severely blunted
